Laboratory results reported in ChEMBL document CHEMBL1201861, “Genomics of Drug Sensitity in Cancer screening data, Wellcome Trust Sanger Institute”.

Assays:
[1] = tested on: ECC4; assay: cells; format: functional, cell-based; conditions: Homo sapiens;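 further: growth inhibition of ECC4 cells, read out with a cell viability assay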
Description: SANGER: Inhibition of human ECC4 cell growth in a cell viability assay.

[2] = tested on: EHEB; assay: cells; format: functional, cell-based; conditions: Homo sapiens;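 further: growth inhibition of human EHEB cells, read out with a cell viability assay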
Description: SANGER: Inhibition of human EHEB cell growth in a cell viability assay.

[3] = tested on: EVSA-T; assay: cells; format: functional, cell-based, Homo sapiens; conditions: Homo sapiens, EVSA-T;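 further: growth inhibition of EVSA-T cells, read out with a cell viability assay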
Description: SANGER: Inhibition of human EVSA-T cell growth in a cell viability assay.

[4] = tested on: EW-12; assay: SANGER: Inhibition of human EW-12 cell growth in a cell viability assay.; format: functional, cell-based
[5] = tested on: IM-9; assay: SANGER: Inhibition of human IM-9 cell growth in a cell viability assay.; format: functional, cell-based
[6] = tested on: IMR-5; assay: cells; format: functional, cell-based; conditions: Homo sapiens;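 further: growth inhibition of human IMR-5 cells, read out with a cell viability assay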
Description: SANGER: Inhibition of human IMR-5 cell growth in a cell viability assay.

[7] = tested on: IST-SL2; assay: cells; format: functional, cell-based; conditions: Homo sapiens;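 further: growth inhibition of human IST-SL2 cells, read out by a cell viability assay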
Description: SANGER: Inhibition of human IST-SL2 cell growth in a cell viability assay.

[8] = tested on: Kasumi 1; assay: cells; format: functional, cell-based; conditions: Homo sapiens;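 further: growth inhibition of human Kasumi-1 cells, read out by a cell viability assay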
Description: SANGER: Inhibition of human KASUMI-1 cell growth in a cell viability assay.

[9] = tested on: L-540; assay: cells; format: functional, cell-based; conditions: Homo sapiens;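 further: growth inhibition of the human L-540 cell line, read out with a viability assay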
Description: SANGER: Inhibition of human L-540 cell growth in a cell viability assay.

[10] = tested on: LB647-SCLC; assay: cells; format: functional, cell-based; conditions: Homo sapiens;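 further: cell growth inhibition, read out by a viability assay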
Description: SANGER: Inhibition of human LB647-SCLC cell growth in a cell viability assay.

[11] = tested on: MRK-nu-1; assay: cells; format: functional, cell-based; conditions: Homo sapiens;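 further: cell viability assay measuring growth suppression of human MRK-nu-1 cells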
Description: SANGER: Inhibition of human MRK-nu-1 cell growth in a cell viability assay.

[12] = tested on: NB1; assay: cells; format: functional, cell-based; conditions: Homo sapiens;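 further: reduction of NB1 cell proliferation, read out with a viability assay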
Description: SANGER: Inhibition of human NB1 cell growth in a cell viability assay.

[13] = tested on: NCI-H128; assay: SANGER: Inhibition of human NCI-H128 cell growth in a cell viability assay.; format: functional, cell-based
[14] = tested on: NCI-H187; assay: cells; format: functional, cell-based; conditions: Homo sapiens;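 further: growth inhibition of NCI-H187 cells, read out as cell viability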
Description: SANGER: Inhibition of human NCI-H187 cell growth in a cell viability assay.

[15] = tested on: NCI-H1963; assay: cells; format: functional, cell-based; conditions: Homo sapiens
Description: SANGER: Inhibition of human NCI-H1963 cell growth in a cell viability assay.

[16] = tested on: NCI-H2107; assay: SANGER: Inhibition of human NCI-H2107 cell growth in a cell viability assay.; format: functional, cell-based
[17] = tested on: NCI-H2196; assay: cells; format: functional, cell-based; conditions: Homo sapiens;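 further: cell viability assay used as the readout of growth inhibition in NCI-H2196 cells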
Description: SANGER: Inhibition of human NCI-H2196 cell growth in a cell viability assay.

[18] = tested on: NCI-H322M; assay: cells; format: functional, cell-based; conditions: Homo sapiens;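 further: cell viability assay measuring inhibition of growth of human NCI-H322M cells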
Description: SANGER: Inhibition of human NCI-H322M cell growth in a cell viability assay.

[19] = tested on: NCI-H345; assay: cells; format: functional, cell-based; conditions: Homo sapiens;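 further: growth inhibition of NCI-H345 cells measured with a cell viability assay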
Description: SANGER: Inhibition of human NCI-H345 cell growth in a cell viability assay.

[20] = tested on: NCI-H716; assay: cells; format: functional, cell-based; conditions: Homo sapiens;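 further: growth inhibition of human NCI-H716 cells, measured by a cell viability assay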
Description: SANGER: Inhibition of human NCI-H716 cell growth in a cell viability assay.

[21] = tested on: OPM-2; assay: cells; format: functional, cell-based; conditions: Homo sapiens;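 further: growth of OPM-2 cells measured with a viability assay, IC50 for suppression of proliferation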
Description: SANGER: Inhibition of human OPM-2 cell growth in a cell viability assay.

[22] = tested on: PF-382; assay: cells; format: functional, cell-based; conditions: Homo sapiens
Description: SANGER: Inhibition of human PF-382 cell growth in a cell viability assay.

[23] = tested on: RL95-2; assay: cells; format: functional, cell-based; conditions: Homo sapiens;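 further: RL95-2 growth inhibition determined through a cell viability readout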
Description: SANGER: Inhibition of human RL95-2 cell growth in a cell viability assay.

[24] = tested on: SIMA; assay: cells; format: functional, cell-based, Homo sapiens; conditions: Homo sapiens, SIMA;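 further: growth inhibition of SIMA cells, measured with a cell viability readout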
Description: SANGER: Inhibition of human SIMA cell growth in a cell viability assay.

[25] = tested on: SKM-1; assay: SANGER: Inhibition of human SKM-1 cell growth in a cell viability assay.; format: functional, cell-based
[26] = tested on: SNU-C1; assay: cells; format: functional, cell-based; conditions: Homo sapiens;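 further: growth inhibition of SNU-C1 human cells, read out by a cell viability assay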
Description: SANGER: Inhibition of human SNU-C1 cell growth in a cell viability assay.

[27] = tested on: BC1 cell line; assay: SANGER: Inhibition of human BC-1 cell growth in a cell viability assay.; format: functional, cell-based
[28] = tested on: BL-41; assay: cells; format: functional, cell-based; conditions: Homo sapiens;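 further: growth inhibition of human BL-41 cells, read out with a cell viability assay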
Description: SANGER: Inhibition of human BL-41 cell growth in a cell viability assay.

[29] = tested on: CA46; assay: cells; format: functional, cell-based; conditions: Homo sapiens;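 further: growth inhibition of human CA46 cells, read out by a cell viability assay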
Description: SANGER: Inhibition of human CA46 cell growth in a cell viability assay.

[30] = tested on: CAL-148; assay: cells; format: functional, cell-based; conditions: Homo sapiens
Description: SANGER: Inhibition of human CAL-148 cell growth in a cell viability assay.

[31] = tested on: TE-15; assay: cells; format: functional, cell-based; conditions: Homo sapiens;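 further: cell viability readout of growth inhibition in TE-15 cells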
Description: SANGER: Inhibition of human TE-15 cell growth in a cell viability assay.

[32] = tested on: UACC-812; assay: cells; format: functional, cell-based; conditions: Homo sapiens
Description: SANGER: Inhibition of human UACC-812 cell growth in a cell viability assay.

[33] = tested on: YT; assay: cells; format: functional, cell-based; conditions: Homo sapiens
Description: SANGER: Inhibition of human YT cell growth in a cell viability assay.

[34] = tested on: CHP-126; assay: cells; format: functional, cell-based; conditions: Homo sapiens
Description: SANGER: Inhibition of human CHP-126 cell growth in a cell viability assay.

[35] = tested on: ECC12; assay: cells; format: functional, cell-based; conditions: Homo sapiens
Description: SANGER: Inhibition of human ECC12 cell growth in a cell viability assay.

[36] = tested on: NCI-H2227; assay: cells; format: functional, cell-based; conditions: Homo sapiens;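 further: growth inhibition of the human cell line, read out with a cell viability assay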
Description: SANGER: Inhibition of human NCI-H2227 cell growth in a cell viability assay.

SMILES	IC50 [1] [nM]	IC50 [3] [nM]	IC50 [4] [nM]	IC50 [5] [nM]	IC50 [6] [nM]	IC50 [7] [nM]	IC50 [8] [nM]	IC50 [9] [nM]	IC50 [10] [nM]	IC50 [11] [nM]	IC50 [12] [nM]	IC50 [13] [nM]	IC50 [14] [nM]	IC50 [15] [nM]	IC50 [16] [nM]	IC50 [17] [nM]	IC50 [18] [nM]	IC50 [19] [nM]	IC50 [20] [nM]	IC50 [21] [nM]	also measured
CN1CCN(CCOc2cc(OC3CCOCC3)c3c(Nc4c(Cl)ccc5c4OCO5)ncnc3c2)CC1 [SARACATINIB]	> 2000	> 2000	> 2000	> 2000	> 2000	> 2000	> 2000	> 2000	> 2000	> 2000	> 2000	> 2000	> 2000	> 2000	> 2000	> 2000	> 2000	> 2000	> 2000	> 2000	IC50 [2]: > 2000 nM; IC50 [22]: > 2000 nM; IC50 [23]: 1670 nM; IC50 [24]: > 2000 nM; IC50 [25]: > 2000 nM; IC50 [26]: > 2000 nM; IC50 [27]: > 2000 nM; IC50 [28]: > 2000 nM; IC50 [29]: > 2000 nM; IC50 [30]: > 2000 nM; IC50 [31]: 274 nM; IC50 [32]: > 2000 nM; IC50 [33]: > 2000 nM; IC50 [34]: > 2000 nM
CNC(=O)c1cc(Oc2ccc(NC(=O)Nc3ccc(Cl)c(C(F)(F)F)c3)cc2)ccn1 [SORAFENIB]	> 4000	> 4000	> 4000	> 4000	> 4000	> 4000	> 4000	2760	> 4000	3610	> 4000	> 4000	> 4000	> 4000	> 4000	> 4000	> 4000	> 4000	> 4000	> 4000	IC50 [35]: > 4000 nM; IC50 [36]: > 4000 nM; IC50 [22]: > 4000 nM; IC50 [23]: > 4000 nM; IC50 [24]: > 4000 nM; IC50 [25]: > 4000 nM; IC50 [26]: > 4000 nM; IC50 [27]: 3740 nM; IC50 [28]: > 4000 nM; IC50 [29]: > 4000 nM; IC50 [30]: > 4000 nM; IC50 [31]: > 4000 nM; IC50 [32]: > 4000 nM; IC50 [33]: > 4000 nM; IC50 [34]: > 4000 nM
CCC(=O)N1CCN(c2ccc(-n3c(=O)ccc4cnc5ccc(-c6cnc7ccccc7c6)cc5c43)cc2C(F)(F)F)CC1 [TORIN1]	1190	8.92	> 1200	> 1200	165	53.6	> 1200	301	117	7.07	279	> 1200	478	626	1170	330	> 1200	> 1200	> 1200	12.9	IC50 [2]: 512 nM; IC50 [22]: 75.7 nM; IC50 [23]: 3.2 nM; IC50 [24]: > 1200 nM; IC50 [25]: > 1200 nM; IC50 [26]: 382 nM; IC50 [27]: > 1200 nM; IC50 [28]: 6.96 nM; IC50 [29]: 509 nM; IC50 [30]: 118 nM; IC50 [31]: 44.3 nM; IC50 [33]: > 1200 nM; IC50 [34]: > 1200 nM
Cc1cc(Nc2cc(N3CCN(C)CC3)nc(Sc3ccc(NC(=O)C4CC4)cc3)n2)n[nH]1 [TOZASERTIB]	> 2000	> 2000	> 2000	> 2000	355	720	> 2000	> 2000	215	381	> 2000	> 2000	641	1710	> 2000	> 2000	> 2000	> 2000	> 2000	> 2000	IC50 [2]: > 2000 nM; IC50 [22]: > 2000 nM; IC50 [23]: 406 nM; IC50 [24]: > 2000 nM; IC50 [25]: > 2000 nM; IC50 [26]: > 2000 nM; IC50 [27]: > 2000 nM; IC50 [28]: 104 nM; IC50 [29]: > 2000 nM; IC50 [30]: > 2000 nM; IC50 [31]: 851 nM; IC50 [33]: > 2000 nM; IC50 [34]: > 2000 nM
